# Columns and labels:
# Type in all cases: cell-based, mouse
# Pmel T cells = test: Golgi stress (monensin, H2O2, thapsigargin) in Pmel T cells: GM130, ROS, Golgi dispersion; design: cell death / mitochondrial ROS / monensin-induced cell death and mitochondrial ROS accumulation / ER stress (p-PERK): dose or concentration left out as unconfirmed
# Procedure: (FIG. 21A) Levels of intracellular glutathione assessed using FACS by employing ThiolTracker Violet dye in control CD19 CAR-T cells or CAR-T cells overexpressing Cbs (CbstdCD19-CAR-T) (n=3). (FIG. 21B) 12 hour Thapsigargin (700 nM) treatment was used to induce ER stress in WT T cells, Cbs-KO T cells, and Cbs-KO T cells+H2S. Levels of phosphorylated PERK were assessed by FACS (n=3). (FIG. 21C) Pmel T cells were treated with either Thapsigargin (700 nM) or Monensin (1 mM) for 12 hours, followed by staining for phosphorylated PERK (p-PERK) and GM130 to assess ER stress and Golgi stress, respectively (n=4). (FIG. 21D) Activated Pmel T cells were treated for 12 hours with either vehicle control or 1 mM Monensin (“+Golgi stress”) before being stained for giantin to assess Golgi dispersion. […] (FIG. 21E) Representative confocal microscopy images of mitochondria (Tom20) and Golgi (giantin) in human PBMCs treated with vehicle control or 0.5 mM GYY4137.
# T cells were stained with conjugated for surface markers as described in the figure legends followed by fixation and permeabilization with BD Cytofix/Cytoperm Kit (BD Biosciences, 554722). The Golgi was labeled using anti-Giantin antibody (Abcam, ab80864) as the primary antibody followed by secondary antibody staining with anti-Rabbit IgG conjugated to Alexa Fluor 488 (ab150077). The cells were then imaged using ImageStreamX mark II imaging flow-cytometer and analyzed using IDEAS 6.2. Spectral overlap was compensated for using single-stain controls. Image analysis for Golgi area was performed using the protocol established by Eisenberg-Lerner et al.44 First, cells were gated on single cells using the area and aspect ratio features, and then gated on focused cells using the Gradient RMS feature. Golgi area was calculated using the anti-Giantin fluorescence signaling, using on the Threshold_50 mask that includes the 50% highest intensity pixels of the Golgi staining, with a mask defined as Area Threshold 50 was considered as the Golgi area to compare between the relevant conditions.
# CD8+ Pmel T cells = test: RT-PCR of CBS and CSE in cytokine-treated CD8+ Pmel T cells; settings: CD8+ Pmel T cells activated 3 days in presence of cytokine
# Text: (FIG. 13A) Pmel T cells were stained with trypan blue stain on day 3 following activation with gp100+IL2 (100 IU/ml) and treated with concentrations of GYY4137 (n=5). (FIG. 13B) Gating strategy for FACS analysis. Pmel splenocytes stained with LIVE/DEAD Fixable Yellow dye and anti-CD8 PE-Cy7. All FACS samples were first gated on the lymphocyte population based on FSA vs SSA. Single cells were gated using FSA vs. FSH. Live cells were gated using live/dead exclusion dye. CD8+ cells were gated by selecting the positive population. (FIG. 13C) Pmel T cells were stimulated with gp100 tumor antigen and treated with either vehicle or GYY4137 (0.5 mM) and analyzed by FACS for expression of CD62L and CD44 at day 0, day 2, day 4, and day 6. […] (FIG. 13F) CD8+ Pmel T cells were activated for 3 days in the presence of various cytokines and analyzed for mRNA expression of CBS and CSE. […] Splenocytes were activated with anti-CD3 and anti-CD28 antibodies an analyzed for expression of Cbs by western blot. (FIG. 13H) Splenocytes from WT and Cbs-KO mice were expanded with either IL-2 or expanded with IL-15 (10 ng/ml) with or without addition of H2S to the Cbs-KO cells and analyzed for expression of CD62L and CD44 by FACS (n=3). […] At day 14, the mice were bled and the frequency of CD3+ T cells was assessed by FACS (n=5). […] (FIG. 13K) Cells were analyzed using FACS for expression of PD1, TIM3, Lag3, and CD38 (n=3). […]
# Prdx4 knockdown T cells = test: Prdx4 siRNA knockdown Pmel T cells under Golgi/oxidative stress
# Procedure: (FIG. 22A) Pmel T cells were activated for 3 days before treatment with vehicle or 50 mM H2O2 for 6 hrs. Prdx4-Golgi colocalization was assessed by PLA using mouse anti-Giantin and rabbit anti-Prdx4 antibodies. (FIG. 22B) Activated Pmel T cells treated with vehicle or 50 mM H2O2 for 6 hrs or 24 hrs with Monensin (1 mM). PLA assay was performed using anti-Giantin and anti-Prdx4 antibodies. (FIG. 22C) Experimental design using Prdx4-targeted siRNA to silence expression of Prdx4 in Pmel T cells. (FIG. 22D) GM130 expression assessed under control versus Monensin (1 μM) conditions in T cells treated with control-siRNA or Prdx4-siRNA. (FIG. 22E) GM130 expression assessed under control versus 50 mM H2O2 conditions in T cells treated with control-siRNA or Prdx4-siRNA+/−0.5 mM GYY4137. (FIG. 22F) Protein translation assessed in Pmel T cells activated+/−GYY4137 and treated with control-siRNA or Prdx4-siRNA. (FIG. 22G) GM130 expression in Pmel T cells treated with vehicle, GYY4137, or Catalase (10 μg/mL). (FIGS. 22H and 22I) Site directed mutagenesis performed to mutate cysteine-54 of the Prdx4 gene. Prdx4-targeted shRNA was used to knock down expression of Prdx4 in Jurkat T cells, followed by transfection with plasmid containing wildtype or mutated Prdx4. (FIG. 22I) GM130 expression assessed after treatment with 50 mM H2O2+/−GYY4137. (FIG. 22J) B16-F10 tumors were injected s.c. into flanks of Pmel mice and grown to ˜100 mm2. TILs and T cells from tumor-draining lymph nodes were isolated via Ficoll spin followed by magnetic bead positive selection. FACS analysis of Prdx4 expression in TILs gated on PD1loLag3lo vs PD1hiLag3hi. (FIG. 22K) Lentiviral supernatant was generated using GFP-tagged control plasmid or GFP-tagged Prdx4-overexpression plasmid. Pmel T cells were transduced with control or Prdx4 lentivirus. Pmel T cells overexpressing Prdx4 and control T cells were treated with H2O2 (50 mM) followed by staining with anti-GM130.
# Given the delicate redox balance necessary for the native disulfide bonds, it was postulated that a localized mechanism for the detection and elimination of ROS produced during the oxidative folding process may require Prdx4. Thus, it was hypothesized that ER and Golgi network stress mitigated by H2S is mediated through the Prdx4 localization and activity in these organelles. First, it was established if Prdx4 also localizes within the Golgi apparatus in T cells using a proximity ligation assay (PLA), a tool that allows in situ detection of endogenous proteins with high specificity and sensitivity, with antibodies directed against Giantin (a conserved Golgi membrane protein) and Prdx4. […] Next, using siRNA targeting Prdx4, expression of Prdx4 in CD8+ Pmel T cells was knocked down (FIG. 22C, FIGS. 23A and 23B). The cells were then subjected to conditions of oxidative and Golgi stress in the presence or absence of H2S treatment. […] Then, to determine whether the protective effect of H2S on Golgi stress is dependent on the presence of Prdx4, Golgi stress was induced in the presence or absence of H2S with control (siCtl) and Prdx4 knockdown (siPrdx4) T cells.
compound,measurement,setting,value
C/C=C(/C)C(=O)O[C@H]1C(C)=C2[C@H]([C@@H]1OC(=O)CCCCCCC)[C@@](C)(OC(C)=O)C[C@H](OC(=O)CCC)[C@@]1(O)[C@H]2OC(=O)[C@@]1(C)O [Thapsigargin],Golgi stress (GM130),Pmel T cells; Thapsigargin (700 nM) 12 hours,nor did Thapsigargin induced Golgi stress
IL15: cytokine known to induce the Tcm phenotype in T cells,mRNA expression of CBS and CSE,CD8+ Pmel T cells,significantly increased expression of both CBS and CSE
IL6: cytokine that plays a key role in memory formation,mRNA expression of CBS and CSE,CD8+ Pmel T cells,significantly increased expression of both CBS and CSE
CC[C@@]1([C@@H]2O[C@@H]([C@H]3O[C@@](O)(CO)[C@H](C)C[C@@H]3C)C[C@@H]2C)CC[C@H]([C@]2(C)CC[C@]3(C[C@H](O)[C@@H](C)[C@@H]([C@@H](C)[C@@H](OC)[C@H](C)C(=O)O)O3)O2)O1 [monensin],ER stress (p-PERK),Pmel T cells,did not induce ER stress
same,cell death,Pmel T cells,induced cell death
same,mitochondrial ROS,Pmel T cells,cellular accumulation of mitochondrial ROS
same,"Golgi dispersion (Golgi area, ImageStream)",Pmel T cells; 1 mM Monensin 12 hours,Golgi dispersion significantly increased
same,intracellular ROS (DCFDA),Pmel T cells; 1 mM monensin,significant increase in ROS (DCFDA)
same,"decrease in GM130 expression, Prdx4 knockdown T cells",Prdx4 knockdown T cells; Monensin (1 μM),further exacerbated
catalase,"protection against Golgi stress (GM130), Prdx4 knockdown T cells",Prdx4 knockdown T cells; Catalase (10 μg/mL),protection against Golgi stress could be rescued
